The text below walks through data of publication PMC9732821, “Neurotrophic Activity and Its Modulation by Zinc Ion of a Dimeric Peptide Mimicking the Brain-Derived Neurotrophic Factor N-Terminal Region” (ACS Chemical Neuroscience, 2022).

In assay [1] the test system is ERK. Kind of assay: ERK phosphorylation in HEK 293 cells, which do not express TrkB. Format: cell-based, human. Particulars: increasing concentrations, 10 min, unstimulated control 100%. As for the experimental part:
Figure S1. Evaluation of d-bdnf mechanism of action. A) ERK phosphorylation levels detected in HEK293T cells, after stimulation (10 min) with increasing concentrations of BDNF (white columns) or d-bdnf (grey columns) normalized to the unstimulated control (CTRL, black column) set to 100%.
Dunnett’s multiple comparison test. B) ERK phosphorylation levels detected in differentiated SH-SY5Y cells, after stimulation (10 min) with a combination of a single concentration of BDNF (1 nM referred to monomeric form) with increasing concentrations (10 nM-100 µM) of d-bdnf (left); B) a combination of a single concentration of d-bdnf (10 µM) with increasing concentrations (0.074 nM – 10 nM) of BDNF (right). […] C) Representative confocal fluorescence images of SH-SY5Y cells differentiated with retinoic acid (RA) and treated acutely with BDNF, d-bdnf or a combination of the two. […] Scale bar: 50 µm.D) Scatter dot plot of the mean ± SEM fluorescence intensity of the analyzed fields (nfields) for the different samples (NT: nfields=9 and total ncells= 285; BDNF: nfields=10 and total ncells= 297; d-bdnf: nfields=10 and total ncells= 255 cells; BDNF+d-bdnf: nfields=10 and total ncells= 253 cells; **p<0.01 according to […]
HSDPARRGELSV-NH2 (m-bdnf): Rt = 25.2 min. ESI-MS: calculated for C54H91N21O18: 1322.4 […]
SRAGPHLRDVSE-NH2 (s-bdnf): Rt = 27.4 min. ESI-MS: calculated for C54H91N21O18: 1322.4 […]

The subject of assay [2] is membrane-bound BDNF. Kind of assay: membrane-bound BDNF, non-permeabilizing immunofluorescence in differentiated SH-SY5Y cells. Format: cell-based, human. The note with it: 1 h. The text has this:
The possibility of mimicking the function of the full-length BDNF protein by using a linear peptide fragment encompassing the first 12 amino acids of the mature NT N-terminal was already postulated.[31] Here, we named this sequence as m-bdnf (Figure 1A) and performed a systematic comparison between the performance of the full-length human BDNF produced recombinantly in Escherichia coli([32]) and (i) m-bdnf, (ii) a dimeric peptide displaying two copies of the m-bdnf sequence covalently bound by a disulfide bridge (d-bdnf), and (iii) a monomeric peptide displaying the scrambled sequence of m-bdnf (s-bdnf). We first investigated the ability of these peptides to activate the TrkB receptor. […] Specifically, an EC50 concentration of BDNF (1 nM) or of d-bdnf (10 μM) was used in combination with the increasing concentration of d-bdnf and BDNF, respectively, and the increase of ERK phosphorylation was assessed. […] Of note, we also performed a non-permeabilizing immunofluorescence analysis to quantify the membrane-bound BDNF in differentiated SH-SY5Y cells in the absence or presence of BDNF and d-bdnf (Figure S1C,D). […] The same increment was not observed upon treatment with the d-bdnf peptide, while instead we measured a slight (∼18%) decrease of the signal possibly due to the ability of the peptide to displace endogenous BDNF at the tested dose (10 μM). […]

Take “HSDPARRGELSVC-C-VSLEGRRAPDSH (disulfide) [d-bdnf]”: the “ERK phosphorylation in HEK 293 cells” value in assay [1] is “not significantly different”. Moreover, in assay [2] (d-bdnf 10 μM), the “decrease of membrane-bound BDNF fluorescent signal” value is about 18%.

B1: brain-derived neurotrophic factor (protein, UniProt P23560 1-247, looked up)
chain: MTILFLTMVISYFGCMKAAPMKEANIRGQGGLAYPGVRTHGTLESVNGPKAGSRGLTSLADTFEHVIEELLDEDQKVRPNEENNKDADLYTSRVMLSSQVPLEPPLLFLLEEYKNYLDAANMSMRVRRHSDPARRGELSVCDSISEWVTAADKKTAVDMSGGTVTVLEKVPVSKGQLKQYFYETKCNPMGYTKEGCRGIDKRHWNSQCRTTQSYVRALTMDSKKRIGWRFIRIDTSCVCTLTIKRGR
modifications: full-length
notes: full-length human BDNF produced recombinantly in Escherichia coli
Regarding B1, the “ERK phosphorylation in HEK 293 cells” value in assay [1] is “not significantly different”. Further, the “increase of membrane-bound BDNF fluorescent signal” value in assay [2] (BDNF 150 ng/mL) is recorded as about 40%.
